How the values were obtained:
RAW264.7 [1] = test: Inhibition of LPS-induced nitric oxide production in mouse RAW264.7 cells after 24 hrs by Griess reaction; assay type: functional, cell-based; settings: RAW264.7, 24 h
RAW264.7 [2] = test: Cytotoxicity against mouse RAW264.7 cells assessed as cell viability at IC50 by colorimetric assay; assay type: cell-based

| Structure (SMILES) | IC50 (RAW264.7 [1]) | Activity (RAW264.7 [2]) |
| --- | --- | --- |
| CC1=CC[C@@H](OC(=O)c2ccccc2)C2[C@@]1(C)[C@@H](OC(=O)c1cccnc1)[C@H](O)[C@]1(C)O[C@@]3(CC[C@]21C)COC(=O)C3 (stereo not given in full) | 34.2 µM | Non-toxic |
| CC1=CC[C@@H](OC(=O)c2ccccc2)C2[C@@]1(C)[C@@H](OC(=O)c1cccnc1)[C@H](OC(=O)c1ccccc1)[C@]1(C)O[C@]3(CC[C@]21C)COC(=O)C3 (stereo not given in full) | > 50 µM | Non-toxic |
| CC(=O)O[C@H]1[C@H](OC(C)=O)[C@]2(C)O[C@]3(CC[C@]2(C)C2[C@H](OC(=O)c4ccccc4)CC=C(C)[C@@]21C)COC(=O)C3 (stereo not given in full) | > 50 µM | Non-toxic |
| C=C1CCCC2[C@@]1(C)[C@@H](OC(=O)c1ccccc1)[C@H](O)[C@]1(C)O[C@]3(COC(=O)C3)C[C@H](OC(=O)c3ccccc3)[C@]21C (stereo not given in full) | 20.6 µM | Non-toxic |
| CC1=CCCC2[C@@]1(C)[C@@H](OC(=O)c1cccnc1)[C@H](O)[C@]1(C)O[C@]3(COC(=O)C3)C[C@H](OC(=O)c3cccnc3)[C@]21C (stereo not given in full) | > 50 µM | Non-toxic |
| CC1=CCCC2[C@@]1(C)[C@@H](OC(=O)c1cccnc1)[C@H](OC(=O)c1ccccc1)[C@](C)(O)[C@]2(C)/C=C/C1=CC(=O)OC1 (stereo not given in full) | 22.8 µM | Non-toxic |
| CC1=CCCC2[C@@]1(C)[C@@H](OC(=O)c1cccnc1)[C@H](OC(=O)c1cccnc1)[C@](C)(O)[C@]2(C)/C=C/C1=CC(=O)OC1 (stereo not given in full) | 26.3 µM | Non-toxic |
| CC1=CCCC2[C@@]1(C)[C@@H](OC(=O)c1ccccc1)[C@H](OC(=O)c1cccnc1)[C@](C)(O)[C@]2(C)/C=C/C1=CC(=O)OC1 (stereo not given in full) | 27.7 µM | Non-toxic |
| CC(=O)O[C@@H](CC1=C(O)C(=O)OC1)[C@]1(C)C2CCC=C(C)[C@]2(C)[C@@H](OC(=O)c2cccnc2)[C@H](O)[C@]1(C)O (stereo not given in full) | > 50 µM | Non-toxic |
| CC(=O)O[C@@H](CC1=C(O)C(=O)OC1)[C@]1(C)C2CCC=C(C)[C@]2(C)[C@@H](OC(=O)c2cccnc2)[C@H](OC(=O)c2cccnc2)[C@]1(C)O (stereo not given in full) | > 50 µM | Non-toxic |
| CC(=O)O[C@@H](CC1=C(O)C(=O)OC1)[C@]1(C)C2CCC=C(C)[C@]2(C)[C@@H](OC(=O)c2cccnc2)[C@H](OC(=O)c2ccccc2)[C@]1(C)O (stereo not given in full) | > 50 µM | Non-toxic |
| CC1=CC[C@@H](OC(=O)c2cccnc2)C2[C@@]1(C)[C@@H](OC(=O)c1cccnc1)[C@H](OC(=O)c1ccccc1)[C@]1(C)O[C@]3(CC[C@]21C)COC(=O)C3 (stereo not given in full) | 21.5 µM | Non-toxic |
| CC1=CC[C@@H](OC(=O)c2ccccc2)C2[C@@]1(C)[C@@H](OC(=O)c1cccnc1)[C@H](OC(=O)c1cccnc1)[C@]1(C)O[C@]3(CC[C@]21C)COC(=O)C3 (stereo not given in full) | 20.2 µM | Non-toxic |
| CC1=CC[C@@H](OC(=O)c2cccnc2)C2[C@@]1(C)[C@@H](OC(=O)c1cccnc1)C[C@]1(C)O[C@@]3(CC[C@]21C)COC(=O)C3 (stereo not given in full) | 35.6 µM | Non-toxic |
| C[C@@]12[C@@H](OC(=O)c3cccnc3)[C@H](OC(=O)c3ccccc3)[C@](C)(O)[C@](C)(/C=C/C3=CC(=O)OC3)[C@H]1CC=C[C@]2(C)O [SCUTEBARBATINE F] | > 50 µM | Non-toxic |
